Source: patent US11414454B2, “Compositions, methods, and systems for affinity-based protein identification and purification” (Auctus Biologies, Inc., priority 2017, dated 2022)
No end group written: not given here.

What was measured:
RPtag (large) [1] = test: Association/dissociation kinetics of RPtag (small) peptides with RPtag (large) by fluorescence anisotropy; assay type: binding, Thermoanaerobacter tengcongensis; conditions: for koff: LS dissociation, unlabeled competitor peptide; for kon (M^−1 min^−1 ) (×10^7): S*-LS transition, calculated from measured koff and Kd; for kf: S to S* forward rate constant; for kr: S* to S reverse rate constant, calculated from Keq and kf
Description: Panel a depicts representative association rate kinetics traces varying native RPtag small. Rhodamine labeled RPtag small at the indicated concentration was incubated with unlabeled RPtag large and the association measured by fluorescence anisotropy. L-S complex concentration was calculated by the equation (r−rmin)/(rmax−rmin)*[S] where r is the measured anisotropy, rmin is the anisotropy in the absence of any RPtag large, rmax is the anisotropy measured in the presence of at saturating RPtag large, and [S] is the total concentration of RPtag small used in the experiment. […] Dashed cyan lines are simulations of the mechanism shown in f using the rate constants detailed herein. The concentrations in the simulations were multiplied by a correction factor of 0.925, which is well within the 90% purity specification of the purchased peptide.
LS complex was performed by incubating 1000 nM RPtag large with the indicated concentrations of rhodamine labeled RPtag small. At the start of the experiment, 0.1 mM unlabeled native RPtag small was added and fluorescence anisotropy monitored. Data processing was done as in panel a, except the red fits were to the single exponential decay equation y=y0+A*exp(−b*t). As expected, the initial dissociation rates were linear with respect to the LS complex.
Fitting to a line yields a rate constant (koff)=0.0091 min^−1 (FIG. 9 panel e). In good agreement, when the kinetics are fit with a first order rate law, a rate constant of 0.012±0.002 min^−1 (n=15) was observed. […] Panel e is a graph of the initial rates of the traces represented in d. Slope of the fit line is 0.0091 min^−1. Data are mean±SE (n=3).
The library of mutant RPtag(small) peptides, described above, was next analyzed to measure off rates (koff). The on rate was also calculated from measured koff and Kd (S*-LS transition), except instead of using unlabeled native peptide as the competitor, we used unlabeled Nd2,P5A,E18A (the tightest binding RPtag(small) peptide identified). […] However, there were notable exceptions. […] This indicates, without wishing to be limited, that P5 may constrain the structure of the peptide. The increased flexibility imparted to the peptide by the P5A mutation may decrease the energy barrier required for binding/unbinding.

RPtag (large) [2] = test: Fluorescence anisotropy Kd of rhodamine labeled RPtag (small) peptides for RPtag (large); assay type: binding, Thermoanaerobacter tengcongensis; conditions: for effect of alanine mutation on binding affinity to RPtag(large): alanine scanning versus native
Description: (§1) 50 nM of RP-Tag Small (see Sequence 3, below) with an N-terminal Rhodamine B label was incubated with increasing concentrations of either RP-Tag Large (see Sequence 2) or Bovine Serum Albumin (BSA) in 50 mM Tris pH 8.0, 150 mM NaCl, 10 mM 2-mercaptoethanol, and 0.005% Tween 20 for 5 min in black 96-well plates at room temperature.
(§2) Anisotropy was then measured, and a Kd calculated by fitting the data to the equation f=y0+(ymax−y0)*(Ptot+x+Kd−sqrt((Ptot+x+Kd)^2−4*Ptot*x))/(2*Ptot), where y0 is the baseline anisotropy, ymax is the maximum anisotropy, Ptot is the fixed concentration of labeled peptide used, x is the variable concentration of protein used, and Kd is the measured Kd.
(§3) The indicated concentrations of RPtag (large) and an anti-His tag antibody (4E3D10H2/E3 purchased from ThermoFisher Scientific) were incubated with 1 nM rhodamine labeled native RPtag (small) peptide and 6×His peptide (Rhodamine-GHHHHHH), respectively, and fluorescence anisotropy measured. BSA incubated with native rhodamine labeled RPtag(small) is included as a control for non-specific binding. Kd's were calculated according to the equation f=y0+(ymax−y0)*(Ptot+x+Kd−sqrt((Ptot+x+Kd)^2−4*Ptot*x))/(2*Ptot), where y0 is the baseline anisotropy, ymax is the maximum anisotropy, Ptot is the fixed concentration of labeled peptide used, x is the variable concentration of protein used, and Kd is the measured Kd. We measured a Kd of 0.2±0.1 nM for RPtag(large) binding RPtag(small), and a Kd of 6±1 nM for the antibody/6×His tag pair.
Regarding the studies shown in FIG. 14, increasing concentrations of unlabeled RPtag large with the indicated mutations (native, f137d, and f137e) were incubated for 1 h with 1 nM rhodamine labeled RPtag small peptide and the fluorescence anisotropy was measured. Resultant curves were fit with the equation f=y0+(ymax−y0)*(Ptot+x+Kd−sqrt((Ptot+x+Kd)^2−4*Ptot*x))/(2*Ptot), where y0 is the baseline anisotropy, ymax is the maximum anisotropy, Ptot is the fixed concentration of labeled peptide used, x is the variable concentration of protein used, and Kd is the measured Kd. Data are presented here as Ka=1/Kd. Log transformed Ka's were then compared by one-way ANOVA with Holm-Sidak post hoc correction. ***p<0.001, **p<0.01, *p<0.05. data are mean±SEM (n=3-4). Buffer was 50 mM Tris pH 8.0, 0.005% tween20. Proteins were expressed and purified by single step NiNTA chromatography as before. Peptides were synthesized solid-state and handled as previous.

immobilized RP-Tag Large = test: Column elution trials of rhodamine labeled RP-Tag Small bound to immobilized RP-Tag Large; assay type: binding, Thermoanaerobacter tengcongensis
Description: One embodiment of the disclosed RP-Tag system was tested by creating a column with one component bound to a solid, agarose-based matrix. In these experiments, a SulfoLink™ Immobilization kit (ThermoFisher scientific) was used to affix RP-Tag Large to a solid support, according to the manufacturer's instructions. For these experiments, an N-terminal linker was added to RP-Large that included a Cys residue. One of skill in the art is able to select various techniques and chemistries to aid in affixing either RP-Tag protein to a solid support matrix.
The amount of protein linked to the column was determined using a BCA assay with Bovine Serum Albumin (BSA) as a standard. […] The linked resin was poured into an included column and the column capped with a frit included in the kit (see photos in FIG. 2). The column was equilibrated with several volumes of 50 mM Tris pH 8.5, 150 mM NaCl, 5 mM EDTA.
25 mL of 1 μM Rhodamine-6B labeled RP-Tag Small, in 50 mM Tris pH 8.5, 150 mM NaCl, 5 mM EDTA, was flowed over the column of immobilized RP-Tag Large protein. RP-Tag Small bound the column and formed a visibly bright red band (rhodamine B) at the top of the resin (see FIG. 2).
Briefly, after binding, the RP-Tag Small red band was not observed to appreciably diffuse and/or elute after washing the column (and band) with various solutions. For these tests, 10 mL (5 column volumes) of various buffers were added to the column. The tested buffers ranged from about pH 1.5-13.7 and about 1 M sodium hydroxide.
Table 1. Summary of elution trial data. The test system used was a column equilibrated with 50 mM Tris pH 8.5, 150 mM NaCl, 5 mM EDTA, and applied 25 mL 1 μM Rhodamine-6B labeled RP-small peptide in the same buffer. In cases where D-ribose was used, the indicated concentration was also included in the equilibration and loading buffer.

[3] = molecular target: Bovine Serum Albumin (BSA) (Bos taurus, UniProt P02769); assay type: binding; conditions: fluorescence anisotropy, rhodamine labeled peptide; up to 10 μM BSA
Description: as §1, §2, §3

[4] = N-terminal rhodamine tagged peptide, unlabeled RPtag (large), 50 mM Tris pH 8.0, 0.005% Tween 20, mean ± SE

Bovine Serum Albumin (BSA), sequence (P02769 25-607): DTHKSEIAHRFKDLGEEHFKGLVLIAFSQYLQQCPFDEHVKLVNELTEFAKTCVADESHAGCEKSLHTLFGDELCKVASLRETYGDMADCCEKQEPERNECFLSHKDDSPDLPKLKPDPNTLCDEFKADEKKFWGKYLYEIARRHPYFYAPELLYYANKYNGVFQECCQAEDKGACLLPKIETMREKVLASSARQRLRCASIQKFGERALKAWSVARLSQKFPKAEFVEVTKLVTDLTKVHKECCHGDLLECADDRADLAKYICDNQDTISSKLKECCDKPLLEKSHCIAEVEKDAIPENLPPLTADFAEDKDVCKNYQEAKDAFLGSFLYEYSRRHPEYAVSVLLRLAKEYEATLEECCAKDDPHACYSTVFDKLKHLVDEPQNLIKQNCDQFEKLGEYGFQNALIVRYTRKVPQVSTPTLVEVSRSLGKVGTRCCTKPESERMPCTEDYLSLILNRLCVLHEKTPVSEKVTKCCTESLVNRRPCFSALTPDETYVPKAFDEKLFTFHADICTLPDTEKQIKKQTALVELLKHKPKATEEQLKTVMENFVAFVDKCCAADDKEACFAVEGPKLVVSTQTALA

Compound | koff (RPtag (large) [1]) [s⁻¹] | kon (M^−1 min^−1 ) (×10^7) (RPtag (large) [1]) | effect of alanine mutation on binding affinity to RPtag(large) (RPtag (large) [2]) | kf (RPtag (large) [1]) [min⁻¹] | kr (RPtag (large) [1]) [min⁻¹] | Kd (RPtag (large) [2]; [4]) [pM] | other results
GEKIPNFIPAELKLITKANVQ [e18a] | 0.000145 ± 6.7e-06 | 16 ± 0.8 ×10^7 M^−1 min^−1 | significantly increased binding affinity | – | – | – | –
GAKIPNFIPAELKLITKENVQ [e2a] | 8.83e-05 ± 1.2e-05 | 5.1 ± 0.7 ×10^7 M^−1 min^−1 | significantly increased binding affinity | – | – | – | –
GEKIPNFIPAELKLITKENVQ [n19a, RPtag(small) with N19 changed to alanine] | 0.000617 ± 5e-05 | 14 ± 1 ×10^7 M^−1 min^−1 | – | 0.089 ± 0.003 | 0.057 ± 0.008 | 260 ± 20 | –
GEKIPNFIPAELKLITKENVQ [RP-Tag Small] | – | – | – | – | – | – | Result of elution trial (bound rhodamine band) (immobilized RP-Tag Large; 0.1M Tris pH 7.5 + 100 μM unlabeled RP tag peptide): Partial band elution, slight; Result of elution trial (bound rhodamine band) (immobilized RP-Tag Large; 0.1M Tris pH 7.5 + 6M guanidine hydrochloride): Complete band elution; Result of elution trial (bound rhodamine band) (immobilized RP-Tag Large; 0.1M Tris pH 7.5 + 6M guanidine hydrochloride + 10 mM D-ribose): partial band elution,; Result of elution trial (bound rhodamine band) (immobilized RP-Tag Large; 0.1M Tris pH 7.5 + 6M guanidine hydrochloride + 100 mM D-ribose): no band elution, significant; Result of elution trial (bound rhodamine band) (immobilized RP-Tag Large; 0.1M Tris pH 7.5 + 6M guanidine hydrochloride + 1M D-ribose): No band elution, minor; Result of elution trial (bound rhodamine band) (immobilized RP-Tag Large; 5 column volumes 0.05M sodium acetate pH 4.6): No band diffusion/elution; Result of elution trial (bound rhodamine band) (immobilized RP-Tag Large; 5 column volumes 0.1M Tris pH 7.5): No band diffusion/elution; Result of elution trial (bound rhodamine band) (immobilized RP-Tag Large; 5 column volumes 0.1M Tris pH 8.0): No band diffusion/elution; Result of elution trial (bound rhodamine band) (immobilized RP-Tag Large; 5 column volumes 0.1M Tris pH 8.5): No band diffusion/elution; Result of elution trial (bound rhodamine band) (immobilized RP-Tag Large; 5 column volumes 0.1M glycine pH 1.5): Complete band elution; Result of elution trial (bound rhodamine band) (immobilized RP-Tag Large; 5 column volumes 0.1M glycine pH 2.5): No band diffusion/elution; Result of elution trial (bound rhodamine band) (immobilized RP-Tag Large; 5 column volumes 0.1M glycine pH 3.5): No band diffusion/elution; Result of elution trial (bound rhodamine band) (immobilized RP-Tag Large; 5 column volumes 0.1M sodium phosphate pH 12.0): No band diffusion/elution; Result of elution trial (bound rhodamine band) (immobilized RP-Tag Large; 5 column volumes 0.1M sodium phosphate pH 13.0): No band diffusion/elution; Result of elution trial (bound rhodamine band) (immobilized RP-Tag Large; 5 column volumes 0.1M sodium phosphate pH 13.7): No band diffusion/elution; Result of elution trial (bound rhodamine band) (immobilized RP-Tag Large; 5 column volumes 1M sodium hydroxide): No band diffusion/elution; stability of bound band on column (immobilized RP-Tag Large; room temperature): > 1 week; Kd (RPtag (large) [2]; 50 nM N-terminal Rhodamine B RP-Tag Small, 50 mM Tris pH 8.0, 150 mM NaCl, 10 mM 2-mercaptoethanol, 0.005% Tween 20): 8000 pM; binding to BSA [3]: no binding
GEKIPNFIPAELKLITKENVQ [v20a, RPtag(small) with V20 changed to alanine] | 0.0002 ± 1.7e-05 | 6.8 ± 0.5 ×10^7 M^−1 min^−1 | – | 0.073 ± 0.003 | – | 180 ± 30 | –
AIANFIPAELKLITKANVQ [Nd2, k3a, e18a] | 0.000533 ± 1.7e-05 | 2.6 ± 0.1 ×10^7 M^−1 min^−1 | – | – | – | 880 ± 10 | –
CC[C@H](C)[C@H](NC(=O)[C@H](CC(C)C)NC(=O)[C@H](CCCCN)NC(=O)[C@H](CC(C)C)NC(=O)[C@H](CCC(=O)O)NC(=O)[C@H](C)NC(=O)[C@@H]1CCCN1C(=O)[C@@H](NC(=O)[C@H](Cc1ccccc1)NC(=O)[C@H](CC(N)=O)NC(=O)[C@@H]1CCCN1C(=O)[C@@H](NC(=O)[C@H](CCCCN)NC(=O)[C@H](CCC(=O)O)NC(=O)[C@H](C)N)[C@@H](C)CC)[C@@H](C)CC)C(=O)N[C@H](C(=O)N[C@@H](CCCCN)C(=O)N[C@@H](CCC(=O)O)C(=O)N[C@@H](CC(N)=O)C(=O)N[C@H](C(=O)N[C@@H](CCC(N)=O)C(=O)O)C(C)C)[C@@H](C)O [g1a] | 7.83e-05 ± 5e-06 | 1.6 ± 0.1 ×10^7 M^−1 min^−1 | – | 0.086 ± 0.004 | 0.037 ± 0.001 | 290 ± 30 | –
GEKIPNFIPAELKLITKENV [Cd1] | 0.000102 ± 1e-05 | 1.1 ± 0.1 ×10^7 M^−1 min^−1 | – | 0.10 ± 0.01 | 0.042 ± 0.007 | 550 ± 40 | –
GEKIPNFIPAELKLITKENVQ [q21a, RPtag(small) with Q21 changed to alanine] | 5.67e-05 ± 5e-06 | – | significantly increased binding affinity | 0.087 ± 0.005 | – | – | –
